Results taken from patent US12522607B2, “Substituted pyrazolo[3,4-d]pyrimidines as wee-1 inhibitors” (WIGEN BIOMEDICINE TECHNOLOGY (SHANGHAI) CO., LTD., priority 2020, dated 2026).
pIC50: −log10 of the molar value.

Assays:
[1] = test system: HT29 cells; assay: Antiproliferative activity against HT29 cells (Cell Titer-Lumi, ATP content); type: cell-based; settings: Homo sapiens, HT-29, 72 after compound addition, read-out: HT-29 cells Anti-proliferative activity (IC50 for the inhibition against HT-29 cell growth)
How it was run: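 3000 cells per well, allowed to adhere overnight, then exposed to a gradient dilution of compound for 72 (units as printed). Cellular ATP read by luminescence (Cell Titer-Lumi) as a growth measure; IC50 for growth inhibition calculated.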

[2] = Pharmacokinetic evaluation in mice; type: in vivo, male ICR mice; settings: for AUC(0-t) / clearance / half-life / Vd / Cmax / Tmax: male, ICR, mouse, plasma; for Vd: read-out: Vss; for F: po 10 mg/kg vs iv 2 mg/kg
Experimental: Example 344. Pharmacokinetic Evaluation in Mice
The compounds were administered by intravenous injection at a dose of 2 mg/kg and oral gavage at a dose of 10 mg/kg (0.5% CMC-Na suspension). 15 male ICR mice were selected for each group, and each mouse was subjected to blood collection at 3 discrete time points, with 3 mice at each time point. The time points of sampling were as follows: before administration, and 5 min, 15 min, 30 min, 1 h, 3 h, 5 h, 8 h, 12 h and 24 h after administration. 80 μL of blood was collected from the orbits or hearts of the mice at each time point after administration. All whole blood samples were collected in tubes containing EDTA K2 and centrifuged (1500-1600 rmp/min) at 4° C. for 10 min to isolate plasma, which was then stored in a refrigerator at −90° C. to −60° C. for sample analysis. The compound concentration in the plasma was determined by liquid chromatography-tandem mass spectrometry, and the corresponding pharmacokinetic parameters were obtained according to a plasma concentration-time curve.

[3] = biological target: T1, Wee-1 kinase (Homo sapiens, UniProt P30291); assay: Inhibitory activity against Wee-1 kinase (Lanthra Screen Wee-1 kinase kit, Tracer 178); type: binding; settings: Wee-1 kinase 5 nM, Tracer 178 50 nM, 1 h room temperature
T1 construct: purchased Invitrogen
How it was run: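 LanthaScreen binding format: Wee-1 kinase (5 nM final) with Eu-anti-GST antibody (2 nM final) and kinase Tracer 178 (50 nM final), compounds serially diluted in DMSO. 1 h at room temperature before reading. IC50 relative to DMSO control.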

[4] = po, 10 mg/kg, 0.5% CMC-Na suspension

T1 sequence (P30291 whole entry): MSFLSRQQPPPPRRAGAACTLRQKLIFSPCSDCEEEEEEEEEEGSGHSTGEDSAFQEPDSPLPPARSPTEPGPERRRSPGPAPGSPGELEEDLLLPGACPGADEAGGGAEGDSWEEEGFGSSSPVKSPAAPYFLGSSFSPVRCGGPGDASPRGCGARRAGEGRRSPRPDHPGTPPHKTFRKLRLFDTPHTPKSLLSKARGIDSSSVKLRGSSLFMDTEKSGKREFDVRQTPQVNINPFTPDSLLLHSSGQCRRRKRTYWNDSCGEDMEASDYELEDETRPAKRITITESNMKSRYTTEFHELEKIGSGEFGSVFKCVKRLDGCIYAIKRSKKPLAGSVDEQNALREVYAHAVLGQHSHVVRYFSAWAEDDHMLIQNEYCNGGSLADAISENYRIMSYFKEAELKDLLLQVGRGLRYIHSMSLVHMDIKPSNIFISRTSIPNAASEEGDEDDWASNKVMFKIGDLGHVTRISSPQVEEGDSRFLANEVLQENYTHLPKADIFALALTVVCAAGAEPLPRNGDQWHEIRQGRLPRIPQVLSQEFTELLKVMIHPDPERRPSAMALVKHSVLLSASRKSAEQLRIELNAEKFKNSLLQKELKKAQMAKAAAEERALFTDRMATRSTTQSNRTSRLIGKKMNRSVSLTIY

C=CCn1c(=O)c2cnc(Nc3ccc(N4CCN(C)CC4)cc3)nc2n1-c1cccc(C(C)(C)O)n1 [AZD-1775, reference compound]
pIC50 [1]: ≥ 6.00 | AUC(0-t) ([2]; iv, 2 mg/kg): 152 ng·h/mL | clearance ([2]; iv, 2 mg/kg): 220 mL/min/kg | half-life ([2]; iv, 2 mg/kg): 18 min | Vd ([2]; iv, 2 mg/kg): 3.51 L/kg | AUC(0-t) [2, 4]: 215 ng·h/mL | Cmax [2, 4]: 247 ng/mL | Tmax [2, 4]: 30 min | half-life [2, 4]: 87 min | F [2]: 28.3%

C=CCn1c(=O)c2cnc(Nc3ccc(N4CCN(C)CC4)cc3)nc2n1-c1ccc(=O)n(C(C)C)n1 [Compound 3]
pIC50 [3]: ≥ 7.52 | pIC50 [1]: ≥ 6.00 | oral absorption characteristics (in words) ([2]; compared with control drug AZD-1775): good oral absorption characteristics | AUC(0-t) ([2]; iv, 2 mg/kg): 736 ng·h/mL | clearance ([2]; iv, 2 mg/kg): 45.3 mL/min/kg | half-life ([2]; iv, 2 mg/kg): 43.1 min | Vd ([2]; iv, 2 mg/kg): 1.8 L/kg | AUC(0-t) [2, 4]: 1210 ng·h/mL | Cmax [2, 4]: 533 ng/mL | Tmax [2, 4]: 15 min | half-life [2, 4]: 115 min | F [2]: 32.9%

Cc1cc(Nc2ncc3c(=O)n(C(C)C)n(-c4ccc(=O)n(C(C)(C)C)c4)c3n2)ccc1N1CCN(C)CC1 [Compound 335]
pIC50 [3]: ≥ 7.52 | pIC50 [1]: ≥ 6.00

Cc1cc(Nc2ncc3c(=O)n(C(C)C)n(-c4ccc(=O)n(C(C)(C)C)c4)c3n2)ccc1C1CCN(C)CC1 [Compound 336]
pIC50 [3]: ≥ 7.52 | pIC50 [1]: ≥ 6.00

CC(C)n1c(=O)c2cnc(Nc3ccc4c(c3)CN(C)CC43CC3)nc2n1-c1ccc(=O)n(C(C)(C)C)c1 [Compound 337]
pIC50 [3]: ≥ 7.52 | pIC50 [1]: ≥ 6.00

CN1CCN(c2ccc(Nc3ncc4c(=O)n(C5CC5)n(-c5ccc(=O)n(C(C)(C)C)c5)c4n3)cc2)CC1 [Compound 338]
pIC50 [3]: ≥ 7.52 | pIC50 [1]: ≥ 6.00

Cc1cc(Nc2ncc3c(=O)n(C4CC4)n(-c4ccc(=O)n(C(C)(C)C)c4)c3n2)ccc1N1CCN(C)CC1 [Compound 339]
pIC50 [3]: ≥ 7.52 | pIC50 [1]: ≥ 6.00

Cc1cc(Nc2ncc3c(=O)n(C4CC4)n(-c4ccc(=O)n(C(C)(C)C)c4)c3n2)ccc1C1CCN(C)CC1 [Compound 340]
pIC50 [3]: ≥ 7.52 | pIC50 [1]: ≥ 6.00

CN1Cc2cc(Nc3ncc4c(=O)n(C5CC5)n(-c5ccc(=O)n(C(C)(C)C)c5)c4n3)ccc2C2(CC2)C1 [Compound 341]
pIC50 [3]: ≥ 7.52 | pIC50 [1]: ≥ 6.00
